Assay [1] concerns Mesenteric artery. As to the kind of experiment: Potentiation of phenylepinephrine-induced contraction in endothelium-intact Sprague-Dawley rat mesenteric artery at 30 umol/L after 30 mins. It is filed as functional, tissue-based.
The nature of assay [2]: Vasorelaxant activity in endothelium-intact Sprague-Dawley rat vascular smooth muscle at > 100 umol/L. The assay is classed as functional.
For assay [3], the system named is Artery. As to the kind of experiment: Change in NS 1619-induced vasorelaxation in endothelium-denuded Sprague-Dawley rat mesenteric artery at 30 umol/L. The assay is classed as functional, tissue-based.
In assay [4] the test system is Mesenteric artery. Briefly: Potentiation of phenylepinephrine-induced contraction in endothelium-intact Sprague-Dawley rat mesenteric artery after 30 mins. It is filed as functional.
Assay [5] relates to Mesenteric artery. Briefly: Potentiation of phenylepinephrine-induced vessel tension in endothelium-intact Sprague-Dawley rat mesenteric artery at 30 umol/L in presence of pretreated indomethacin. The assay is classed as functional, tissue-based.
Assay [6] deals with Mesenteric artery. As to the kind of experiment: Increase in phenylepinephrine-induced vessel tension in endothelium-intact Sprague-Dawley rat mesenteric artery at 30 umol/L in presence of tetraethylammonium. It is filed as functional, tissue-based.
The test system of assay [7] is Mesenteric artery. As to the kind of experiment: Potentiation of phenylepinephrine-induced contraction in endothelium-intact Sprague-Dawley rat mesenteric artery at 100 to 300 umol/L after 30 mins. The assay is classed as functional, tissue-based.
The subject of assay [8] is Artery. As to the kind of experiment: Attenuation of acetylcholine-induced vasorelaxation in endothelium-intact Sprague-Dawley rat mesenteric artery at 30 umol/L after 30 mins. It is filed as functional, tissue-based.
Assay [9] concerns Artery. As to the kind of experiment: Change in sodium nitroprusside-induced vasorelaxation in endothelium-denuded Sprague-Dawley rat mesenteric artery at 30 umol/L after 30 mins. It is filed as functional, tissue-based.
For assay [10], the system named is Mesenteric artery. As to the kind of experiment: Potentiation of phenylepinephrine-induced contraction in endothelium-intact Sprague-Dawley rat mesenteric artery at 30 umol/L after 30 mins in presence of NG-nitro-L-arginine methyl ester. It is filed as functional, tissue-based.
Assay [11] deals with Artery. As to the kind of experiment: Attenuation of forskolin-induced vasorelaxation in endothelium-denuded Sprague-Dawley rat mesenteric artery at 30 umol/L. The assay is classed as functional, tissue-based.
Assay [12] deals with Artery. Briefly: Change in hydroxylamine-induced vasorelaxation in endothelium-denuded Sprague-Dawley rat mesenteric artery at 30 umol/L after 30 mins. It is filed as functional, tissue-based.
Assay [13] relates to Mesenteric artery. Briefly: Enhancement of phenylepinephrine-induced contraction in endothelium-intact Sprague-Dawley rat mesenteric artery at 30 umol/L after 30 mins in presence of co-treated 1H-[1,2,4]oxadiazolo[…]quinoxalin-1-one. The assay is classed as functional, tissue-based.
Assay [14] deals with Mesenteric artery. As to the kind of experiment: Potentiation of phenylepinephrine-induced contraction in endothelium-denuded Sprague-Dawley rat mesenteric artery at 30 umol/L after 30 mins. It is filed as functional, tissue-based.
For assay [15], the system named is Mesenteric artery. Briefly: Potentiation of phenylepinephrine-induced contraction in endothelium-intact Sprague-Dawley rat mesenteric artery at 30 umol/L after 30 mins in presence of NG-nitro-L-arginine. It is filed as functional, tissue-based.

Active and inactive are the calls of the source. The calls are words filed in the database; no cut-off is given here.

On to `C[C@@H]1O[C@@H](O[C@@H]2[C@@H](O)[C@H](OCCc3ccc(O)c(O)c3)O[C@H](CO)[C@H]2OC(=O)/C=C/c2ccc(O)c(O)c2)[C@H](O)[C@H](O)[C@H]1O`, for which the result in assay [1], in assay [2], in [5] and in [8] was Active. Also, the outcome in assay [3], in assay [6], in assay [7], in assay [9], in assay [10] and in assay [11] was inactive. Moreover, the result in assay [12], in [13], in [14] and in [15] was inactive. Besides, the Activity result in [4] is “Dose-dependent effect”.

These data come from ChEMBL document CHEMBL1150112, “Enhancement of contraction of rat mesenteric artery by acteoside: role of endothelial nitric oxide” (J Nat Prod, 2002).
